In test [1] the target is Aldo-keto reductase family 1 member B1 (Rattus norvegicus, UniProt P07943). The test can be described thus: biochemical. Format: tissue-based, Lens of camera-type eye.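 Further: inhibition of aldose reductase enzyme activity, measured with DL-glyceraldehyde as the substrate; in other assays of this panel Not Active means under 50% inhibition at 10 µM.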
Test [2] deals with T1, 5-hydroxytryptamine receptor 2C (Homo sapiens, UniProt P28335).
T1 sequence (P28335 whole entry): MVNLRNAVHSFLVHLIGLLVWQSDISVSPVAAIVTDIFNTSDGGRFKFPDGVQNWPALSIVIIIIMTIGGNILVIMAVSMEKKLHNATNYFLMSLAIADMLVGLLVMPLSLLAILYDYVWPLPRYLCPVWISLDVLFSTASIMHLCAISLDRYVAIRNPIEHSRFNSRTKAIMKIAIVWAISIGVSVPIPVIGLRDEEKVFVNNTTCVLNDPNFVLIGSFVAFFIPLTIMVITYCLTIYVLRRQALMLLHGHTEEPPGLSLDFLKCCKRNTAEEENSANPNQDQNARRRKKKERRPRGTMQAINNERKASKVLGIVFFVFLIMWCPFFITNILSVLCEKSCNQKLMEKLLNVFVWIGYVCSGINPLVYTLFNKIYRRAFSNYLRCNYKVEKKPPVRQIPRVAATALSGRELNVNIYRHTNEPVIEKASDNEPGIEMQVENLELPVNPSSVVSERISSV
As to the kind of experiment: DRUGMATRIX: Serotonin (5-Hydroxytryptamine) 5-HT2C radioligand binding (ligand: [3H] Mesulergine). Format: cell membranes, CHO-K1, Membrane. The settings on record: Not Active = under 50% inhibition at 10 µM; for Ki: read-out: Ki.

In test [3] the target is T2, Polyunsaturated fatty acid lipoxygenase ALOX15 (Oryctolagus cuniculus, UniProt P12530).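 Further: inhibition of 15-lipoxygenase enzyme activity measured with linoleic acid as the substrate; in other assays of this panel Not Active means under 50% inhibition at 10 µM.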
T2 sequence (P12530 whole entry): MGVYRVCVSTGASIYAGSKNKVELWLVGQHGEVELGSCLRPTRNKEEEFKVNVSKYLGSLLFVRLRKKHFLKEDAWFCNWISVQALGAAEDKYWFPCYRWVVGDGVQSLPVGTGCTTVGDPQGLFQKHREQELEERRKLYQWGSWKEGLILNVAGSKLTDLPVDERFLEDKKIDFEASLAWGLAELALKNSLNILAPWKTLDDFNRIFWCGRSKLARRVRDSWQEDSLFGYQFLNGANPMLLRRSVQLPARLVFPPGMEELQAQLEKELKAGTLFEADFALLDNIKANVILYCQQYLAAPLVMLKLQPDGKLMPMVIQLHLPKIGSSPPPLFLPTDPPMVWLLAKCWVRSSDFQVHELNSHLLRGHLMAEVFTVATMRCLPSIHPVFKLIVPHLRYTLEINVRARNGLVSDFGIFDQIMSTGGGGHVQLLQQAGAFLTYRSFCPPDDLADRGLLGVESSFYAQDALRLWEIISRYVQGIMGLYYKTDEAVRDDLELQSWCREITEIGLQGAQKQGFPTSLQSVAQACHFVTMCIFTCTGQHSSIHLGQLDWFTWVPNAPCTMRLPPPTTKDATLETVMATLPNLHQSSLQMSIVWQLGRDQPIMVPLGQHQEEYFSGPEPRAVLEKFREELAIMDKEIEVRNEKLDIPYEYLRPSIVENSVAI
The test can be described thus: biochemical. In kind it is tissue-based, Reticulocytes.

In test [4] the target is Platelet-activating factor receptor (Homo sapiens, UniProt P25105). Format: tissue-based. Further: in other assays of this panel Not Active means under 50% inhibition at 10 µM.
The next test deals with T3, Neutrophil elastase (Homo sapiens, UniProt P08246).
T3 sequence (P08246 whole entry): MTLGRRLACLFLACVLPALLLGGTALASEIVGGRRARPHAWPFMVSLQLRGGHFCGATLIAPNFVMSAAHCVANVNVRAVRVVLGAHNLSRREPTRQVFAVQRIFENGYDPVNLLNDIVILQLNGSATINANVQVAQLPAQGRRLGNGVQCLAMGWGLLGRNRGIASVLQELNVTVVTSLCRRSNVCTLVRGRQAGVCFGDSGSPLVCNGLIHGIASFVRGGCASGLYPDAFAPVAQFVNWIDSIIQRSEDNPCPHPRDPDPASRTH
In kind it is tissue-based.

Test [5] deals with T4, 5-hydroxytryptamine receptor 1A (Rattus norvegicus, UniProt P19327).
T4 sequence (P19327 whole entry): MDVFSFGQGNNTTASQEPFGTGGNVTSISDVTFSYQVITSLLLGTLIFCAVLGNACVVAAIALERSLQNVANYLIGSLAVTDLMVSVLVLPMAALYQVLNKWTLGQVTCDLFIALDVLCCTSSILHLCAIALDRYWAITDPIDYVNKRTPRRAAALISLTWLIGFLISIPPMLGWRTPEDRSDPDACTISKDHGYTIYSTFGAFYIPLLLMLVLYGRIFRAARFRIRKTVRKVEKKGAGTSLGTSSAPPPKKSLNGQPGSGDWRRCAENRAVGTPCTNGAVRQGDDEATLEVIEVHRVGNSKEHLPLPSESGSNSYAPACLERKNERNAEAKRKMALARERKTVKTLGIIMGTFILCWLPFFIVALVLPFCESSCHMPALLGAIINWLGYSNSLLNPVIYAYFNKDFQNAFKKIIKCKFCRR
Format: cell membranes, CHO-K1, Membrane.

Molecules are shown by their SMILES.

Sequence of Platelet-activating factor receptor (P25105 whole entry): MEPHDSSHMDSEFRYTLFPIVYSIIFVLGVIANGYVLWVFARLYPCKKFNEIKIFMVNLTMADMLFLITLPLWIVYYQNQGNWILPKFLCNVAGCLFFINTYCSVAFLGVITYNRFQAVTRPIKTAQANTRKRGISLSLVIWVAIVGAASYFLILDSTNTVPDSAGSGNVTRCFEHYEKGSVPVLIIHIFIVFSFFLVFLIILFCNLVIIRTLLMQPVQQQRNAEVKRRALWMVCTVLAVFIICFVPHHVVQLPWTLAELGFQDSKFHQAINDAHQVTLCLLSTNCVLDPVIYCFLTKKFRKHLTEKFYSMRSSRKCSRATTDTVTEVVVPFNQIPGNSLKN

With `CCOc1nc2cccc(C(=O)O)c2n1Cc1ccc(-c2ccccc2-c2nnn[nH]2)cc1`, the IC50 entry (in test [1]; in test [2] (cho-k1); in test [3] (reticulocytes); in test [4]; on Neutrophil elastase; in test [5] (cho-k1)) was “Not Active” each time.
As for `O=C(O)CCCc1cccs1`, the IC50 result (in test [1]; in test [2] (cho-k1); in test [3] (reticulocytes); in test [4]; at Neutrophil elastase; in test [5] (cho-k1)) was “Not Active” in each case.
In the case of `COc1ccccc1N`, the IC50 result in test [1] is “Not Active”; in test [2] (cho-k1) it was “Not Active”; in test [3] (read-out: IC50), 2050 nM; in test [4], “Not Active”; against Neutrophil elastase, “Not Active”; in test [5] (cho-k1) it was “Not Active”.
For the compound `O=C(c1ccccc1F)N1CCC(Cc2ccccc2)CC1`, the IC50 entry (in test [1]; in test [2] (cho-k1); in test [3] (reticulocytes); in test [4]; against Neutrophil elastase; in test [5] (cho-k1)) was “Not Active” in each case.
Consider `Cc1c(O)cccc1C(=O)N[C@@H](CSc1ccccc1)[C@H](O)CN1C[C@H]2CCCC[C@H]2C[C@H]1C(=O)NC(C)(C)C`, for which the half-inhibitory concentration (IC50) result in test [1] was “Not Active”; in test [2] (cho-k1), “Not Active”; in test [3] (read-out: IC50), 13800 nM; in test [4], “Not Active”; on Neutrophil elastase, “Not Active”; in test [5] (cho-k1) it was “Not Active”.
Regarding `CC(O)COC[C@H]1O[C@@H]2O[C@H]3[C@H](O)[C@@H](O)[C@@H](O[C@H]4[C@H](O)[C@@H](O)[C@@H](O[C@H]5[C@H](O)[C@@H](O)[C@@H](O[C@H]6[C@H](O)[C@@H](O)[C@@H](O[C@H]7[C@H](O)[C@@H](O)[C@@H](O[C@H]8[C@H](O)[C@@H](O)[C@@H](O[C@H]1[C@H](O)[C@H]2O)O[C@@H]8COCC(C)O)O[C@@H]7COCC(C)O)O[C@@H]6COCC(C)O)O[C@@H]5COCC(C)O)O[C@@H]4COCC(C)O)O[C@@H]3COCC(C)O` (stereo partly drawn) [2-HYDROXYPROPYL-BETA-CYCLODEXTRIN], the IC50 entry in test [1] is “Not Active”; in test [2] (read-out: IC50) it was 1590 nM; in test [3] (reticulocytes), “Not Active”; in test [4] it was “Not Active”; at Neutrophil elastase, “Not Active”; in test [5] (cho-k1) it was “Not Active”. In test [2], the Ki stood at 833 nM.
For the compound `NC(=O)c1cccc(N)c1` [3-AMINOBENZAMIDE], the IC50 result (in test [1]; in test [2] (cho-k1); in test [3] (reticulocytes); in test [4]; at Neutrophil elastase; in test [5] (cho-k1)) was “Not Active” throughout.
Regarding `C[C@H]1O[C@H](O[C@H]2[C@H](O)[C@@H](O)[C@@H](O[C@H]3[C@H](O)[C@@H](O)C(O)O[C@@H]3CO)O[C@@H]2CO)[C@H](O)[C@@H](O)[C@@H]1N[C@H]1C=C(CO)[C@@H](O)[C@H](O)[C@H]1O` (stereo partly drawn) [ACARBOSE], the IC50 result (in test [1]; in test [2] (cho-k1); in test [3] (reticulocytes); in test [4]; against Neutrophil elastase; in test [5] (cho-k1)) was “Not Active” throughout.
With `CC[C@H]1[C@@H]2C[C@H]3[C@@H]4N(C)c5ccccc5[C@]45C[C@@H]([C@@H]2[C@H]5O)N3[C@@H]1O` [AJMALINE], the IC50 entry (in test [1]; in test [2] (cho-k1); in test [3] (reticulocytes); in test [4]; against Neutrophil elastase; in test [5] (cho-k1)) was “Not Active” throughout.
On to `NC12CC3CC(CC(C3)C1)C2` [AMANTADINE], for which the half-inhibitory concentration (IC50) result (in test [1]; in test [2] (cho-k1); in test [3] (reticulocytes); in test [4]; against Neutrophil elastase; in test [5] (cho-k1)) was “Not Active” throughout.
As to `NCCCNCCSP(=O)(O)O` [AMIFOSTINE], the half-inhibitory concentration (IC50) result (in test [1]; in test [2] (cho-k1); in test [3] (reticulocytes); in test [4]; on Neutrophil elastase; in test [5] (cho-k1)) was “Not Active” in each case.
Take `CN(C)CCC=C1c2ccccc2CCc2ccccc21` [AMITRIPTYLINE]: the half-maximal inhibitory concentration (IC50) result was “Not Active” in test [1]; 6.05 nM in test [2] (read-out: IC50); “Not Active” in test [3] (reticulocytes); “Not Active” in test [4]; “Not Active” at Neutrophil elastase; 2000 nM in test [5] (read-out: IC50). In addition, the inhibition constant (Ki) in test [2] worked out at 3.17 nM; in test [5] (read-out: Ki), 1140 nM.
On to `CC(=O)Oc1ccccc1C(=O)O` [ASPIRIN], for which the IC50 entry (in test [1]; in test [2] (cho-k1); in test [3] (reticulocytes); in test [4]; against Neutrophil elastase; in test [5] (cho-k1)) was “Not Active” in each case.
With `CC(C)c1c(C(=O)Nc2ccccc2)c(-c2ccccc2)c(-c2ccc(F)cc2)n1CC[C@@H](O)C[C@@H](O)CC(=O)O` [ATORVASTATIN], the IC50 entry (in test [1]; in test [2] (cho-k1); in test [3] (reticulocytes); in test [4]; on Neutrophil elastase; in test [5] (cho-k1)) was “Not Active” each time.
With `CC(=O)OC[C@H]1O[C@@H](n2ncc(=O)[nH]c2=O)[C@H](OC(C)=O)[C@@H]1OC(C)=O` [AZARIBINE], the IC50 entry (in test [1]; in test [2] (cho-k1); in test [3] (reticulocytes); in test [4]; at Neutrophil elastase; in test [5] (cho-k1)) was “Not Active” each time.
In the case of `C[C@H]1[C@H](NC(=O)/C(=N\OC(C)(C)C(=O)O)c2csc(N)n2)C(=O)N1S(=O)(=O)O` [AZTREONAM], the IC50 entry (in test [1]; in test [2] (cho-k1); in test [3] (reticulocytes); in test [4]; against Neutrophil elastase; in test [5] (cho-k1)) was “Not Active” each time.
As to `O=C(O)CCNC(=O)c1ccc(/N=N/c2ccc(O)c(C(=O)O)c2)cc1` [BALSALAZIDE], the IC50 entry (in test [1]; in test [2] (cho-k1); in test [3] (reticulocytes); in test [4]; against Neutrophil elastase; in test [5] (cho-k1)) was “Not Active” throughout.
Turning to `COc1cc(OC)c(C(=O)CCCN2CCCC2)c(OC)c1` [BUFLOMEDIL], the IC50 result (in test [1]; in test [2] (cho-k1); in test [3] (reticulocytes); in test [4]; on Neutrophil elastase; in test [5] (cho-k1)) was “Not Active” throughout.
For `Cn1c(=O)c2c(ncn2C)n(C)c1=O` [CAFFEINE], the IC50 entry (in test [1]; in test [2] (cho-k1); in test [3] (reticulocytes); in test [4]; at Neutrophil elastase; in test [5] (cho-k1)) was “Not Active” each time.
Consider `ClC(Cl)(Cl)Cl` [CARBON TETRACHLORIDE], for which the 50% inhibitory concentration (IC50) entry (in test [1]; in test [2] (cho-k1); in test [3] (reticulocytes); in test [4]; against Neutrophil elastase; in test [5] (cho-k1)) was “Not Active” in each case.
